From patent publication US5256685A, “Mitomycin derivatives” (Kyowa Hakko Kogyo Co., Ltd., priority 1991, dated 1993)

Columns and labels:
Sarcoma 180 solid tumor = assay: Anti-tumor activity to sarcoma 180 solid tumor; assay type: in vivo; settings: Mus musculus, Sarcoma-180, iv, 168 h; dose showing T/C=0.5 (tumor volume, 7 days after implantation); single i.v. injection 24 hours after s.c. implantation; male ddY mice
Experimental: Anti-tumor activity to sarcoma 180 solid tumor
5×10^6 Sarcoma 180 cells were abdominally implanted into a ddY mouse and the cells were collected from the ascites of the mouse 7 days after the implantation. The cells were washed once with a sterilized physiological saline solution and then suspended in a sterilized physiological saline solution to prepare a cell suspension of 5×10^7 cells/ml.
0.1 ml of the cell suspension was subcutaneously implanted into the right axillary space of male ddY mice weighing 20±2 g.
A test compound was dissolved in a physiological saline solution or a polyoxyethylene sorbitan monolaurate-containing physiological saline solution, and 0.1 to 0.2 ml of the solution was intravenously injected to 5 mice as one group 24 hours after the implantation of the tumor cells.
The anti-tumor activity of the test compound was determined by measuring the major axis (a) and the minor axis (b) of the tumor 7 days after the implantation of tumor cells, and the value of (a×b^2 /2), which corresponds to the volume of the tumor, was calculated. The intended anti-tumor activity is represented by a ratio of T/C, in which C indicates the tumor volume of mice of the control group to which no test compound was administered and T indicates the tumor volume of mice of the test group to which the test compound was administered. T/C at each dose given was plotted on the vertical axis and a dose is shown by a logarithmic scale on the horizontal axis. The relationship between the dose and T/C was determined to be a straight line by the least squares method. From the regression formula of the straight line thus obtained, the dose showing T/C=0.5 was calculated to give ED50.

Acute toxicity = settings: mouse, in vivo, iv; i.v. once, ddY mice, observed 14 days; Behrens-Kaerber's method
Experimental: A test compound was intravenously injected once to five ddY mice as one group. […] LD50 was calculated from the death rate of each group to which the test compound was administered according to the Behrens-Kaerber's method.

HeLaS3 cells = assay: Growth inhibition test on HeLaS3 cells; assay type: cell-based; settings: Homo sapiens, HeLa S3, 1 h exposure, then 72 h incubation at 37° C., Neutral Red
Experimental: Growth inhibition test on HeLaS3 cells
HeLaS3 cells were suspended in an MEM medium containing 10% fetal calf serum and 2 mM glutamine at a density of 3×10^4 cells/ml, and 0.1 ml of the cell suspension was put into each well of a 96-well microtiter plate.
After culturing at 37° C. overnight in a carbon dioxide gas incubator, 0.05 ml each of a test compound appropriately diluted with the medium was added to each well. The cells were further cultured for an hour in the carbon dioxide gas incubator, and the culture supernatant was removed. The residue was washed once with a phosphate buffered saline [PBS (-)] and 0.1 ml each of a fresh medium was added to each well. The cells were further incubated at 37° C. for 72 hours in the carbon dioxide gas incubator. After removal of the culture supernatant, 0.1 ml each of the culture medium containing 0.02% Neutral Red was added to each well, and the cells were further incubated at 37° C. for an hour in the carbon dioxide gas incubator to stain the cells.
After removal of the culture supernatant, each well was washed once with a physiological saline, and the dye was extracted with 0.001N HCl/30% ethanol. Absorbance of the extract at 550 nm was measured with a microplate reader. The cell growth inhibition percentage was calculated according to the following equation from the absorbance of the extract of the cells treated with the test compound in various concentrations and that of the untreated cells. [formula]
From the cell growth inhibition percentage thus obtained, the concentration of the test compound which inhibits cell growth by 50%, i.e. IC50 value, was determined.

Structure (SMILES)	ED50 (Sarcoma 180 solid tumor) [mg/kg]	LD50 at 336 h (Acute toxicity) [mg/kg]	IC50 (HeLaS3 cells) [mM]
CO[C@@]12[C@H](COC(N)=O)C3=C(C(=O)C4=C(OC5=C(C4)C(=O)CC(C)C5)C3=O)N1C[C@@H]1N[C@@H]12 (single isomer, unassigned) [Compound 36]	1.3	4.4	
COc1ccc(C2CC(=O)C3=C(C2)OC2=C(C3)C(=O)C3=C(C2=O)[C@@H](COC(N)=O)[C@@]2(OC)[C@H]4N[C@H]4CN32)cc1 (single isomer, unassigned) [Compound 38]	12		
CCC1=C(N)C(=O)C2=C(C1=O)N1C[C@@H]3N[C@@H]3[C@]1(OC)[C@@H]2COC(N)=O [Compound 1, 6-demethyl-6-ethylmitomycin C]	6.7	38	3
CO[C@@]12[C@H](COC(N)=O)C3=C(C(=O)C(Cc4ccccc4)=C(N)C3=O)N1C[C@@H]1N[C@@H]12 [Compound 7, 6-benzyl-6-demethylmitomycin C]	18	> 50	2.3
CO[C@@]12[C@H](COC(N)=O)C3=C(C(=O)C(CC4=C(O)CC(C)(C)CC4=O)=C(N)C3=O)N1C[C@@H]1N[C@@H]12 [Compound 9]	8	30	1.5
CCOC(=O)C(C)(CC1=C(OC)C(=O)C2=C(C1=O)N1C[C@@H]3N[C@@H]3[C@]1(OC)[C@@H]2COC(N)=O)C(C)=O (stereo partly drawn) [Compound 10]			1.6
CCOC(=O)C1=C(C)OC2=C(C1)C(=O)C1=C(C2=O)[C@@H](COC(N)=O)[C@@]2(OC)[C@H]3N[C@H]3CN12 [Compound 12]	0.7	5.2	
CO[C@@]12[C@H](COC(N)=O)C3=C(C(=O)C4=C(OC5=C(C4)C(=O)CC(C)(C)C5)C3=O)N1C[C@@H]1N[C@@H]12 [Compound 13]	1.3	2.9	0.084
CO[C@@]12[C@H](COC(N)=O)C3=C(C(=O)C4=C(OC5=C(C4)C(=O)CCC5)C3=O)N1C[C@@H]1N[C@@H]12 [Compound 14]	0.84	2.2	0.065
CCC1=C(OC)C(=O)C2=C(C1=O)N1C[C@@H]3N[C@@H]3[C@]1(OC)[C@@H]2COC(N)=O [Compound 15, 6-demethyl-6-ethylmitomycin A]	2.8	8.2	
CCC1=C(OC)C(=O)C2=C(C1=O)N1C[C@H]3[C@H](N3C)[C@]1(O)[C@H]2COC(N)=O (stereo partly drawn) [Compound 16, 6-demethyl-6-ethylmitomycin B]	14	25	
CO[C@@]12[C@H](COC(N)=O)C3=C(C(=O)C4=C(OC(C)=C(C(=O)c5ccccc5)C4)C3=O)N1C[C@@H]1N[C@@H]12 [Compound 30]	5.8		
CO[C@@]12[C@H](COC(N)=O)C3=C(C(=O)C4=C(OC5=C(C4)C(=O)CC(C)C5)C3=O)N1C[C@@H]1N[C@@H]12 (stereo partly drawn) [Compound 37]	0.93		
